In patent US11572590B2, “Methods for evaluating tumor cell spheroids using 3D microfluidic cell culture device” (Dana-Farber Cancer Institute, Inc., priority 2017, dated 2023):
Where two headings read alike, the source gives them in different places.

Columns and labels:
Assay in all cases: SelectScreen Kinase Profiling, single point inhibition and IC50 for off-target kinases
Type in all cases: biochemical
off-target kinases [1] = target: off-target kinases (Homo sapiens, UniProt Q9Y5S2); details: CDC42 BPB (MRCKB), ZLYTE, ATP Km app
off-target kinases (Homo sapiens, UniProt Q9Y5S2), sequence (Q9Y5S2 whole entry): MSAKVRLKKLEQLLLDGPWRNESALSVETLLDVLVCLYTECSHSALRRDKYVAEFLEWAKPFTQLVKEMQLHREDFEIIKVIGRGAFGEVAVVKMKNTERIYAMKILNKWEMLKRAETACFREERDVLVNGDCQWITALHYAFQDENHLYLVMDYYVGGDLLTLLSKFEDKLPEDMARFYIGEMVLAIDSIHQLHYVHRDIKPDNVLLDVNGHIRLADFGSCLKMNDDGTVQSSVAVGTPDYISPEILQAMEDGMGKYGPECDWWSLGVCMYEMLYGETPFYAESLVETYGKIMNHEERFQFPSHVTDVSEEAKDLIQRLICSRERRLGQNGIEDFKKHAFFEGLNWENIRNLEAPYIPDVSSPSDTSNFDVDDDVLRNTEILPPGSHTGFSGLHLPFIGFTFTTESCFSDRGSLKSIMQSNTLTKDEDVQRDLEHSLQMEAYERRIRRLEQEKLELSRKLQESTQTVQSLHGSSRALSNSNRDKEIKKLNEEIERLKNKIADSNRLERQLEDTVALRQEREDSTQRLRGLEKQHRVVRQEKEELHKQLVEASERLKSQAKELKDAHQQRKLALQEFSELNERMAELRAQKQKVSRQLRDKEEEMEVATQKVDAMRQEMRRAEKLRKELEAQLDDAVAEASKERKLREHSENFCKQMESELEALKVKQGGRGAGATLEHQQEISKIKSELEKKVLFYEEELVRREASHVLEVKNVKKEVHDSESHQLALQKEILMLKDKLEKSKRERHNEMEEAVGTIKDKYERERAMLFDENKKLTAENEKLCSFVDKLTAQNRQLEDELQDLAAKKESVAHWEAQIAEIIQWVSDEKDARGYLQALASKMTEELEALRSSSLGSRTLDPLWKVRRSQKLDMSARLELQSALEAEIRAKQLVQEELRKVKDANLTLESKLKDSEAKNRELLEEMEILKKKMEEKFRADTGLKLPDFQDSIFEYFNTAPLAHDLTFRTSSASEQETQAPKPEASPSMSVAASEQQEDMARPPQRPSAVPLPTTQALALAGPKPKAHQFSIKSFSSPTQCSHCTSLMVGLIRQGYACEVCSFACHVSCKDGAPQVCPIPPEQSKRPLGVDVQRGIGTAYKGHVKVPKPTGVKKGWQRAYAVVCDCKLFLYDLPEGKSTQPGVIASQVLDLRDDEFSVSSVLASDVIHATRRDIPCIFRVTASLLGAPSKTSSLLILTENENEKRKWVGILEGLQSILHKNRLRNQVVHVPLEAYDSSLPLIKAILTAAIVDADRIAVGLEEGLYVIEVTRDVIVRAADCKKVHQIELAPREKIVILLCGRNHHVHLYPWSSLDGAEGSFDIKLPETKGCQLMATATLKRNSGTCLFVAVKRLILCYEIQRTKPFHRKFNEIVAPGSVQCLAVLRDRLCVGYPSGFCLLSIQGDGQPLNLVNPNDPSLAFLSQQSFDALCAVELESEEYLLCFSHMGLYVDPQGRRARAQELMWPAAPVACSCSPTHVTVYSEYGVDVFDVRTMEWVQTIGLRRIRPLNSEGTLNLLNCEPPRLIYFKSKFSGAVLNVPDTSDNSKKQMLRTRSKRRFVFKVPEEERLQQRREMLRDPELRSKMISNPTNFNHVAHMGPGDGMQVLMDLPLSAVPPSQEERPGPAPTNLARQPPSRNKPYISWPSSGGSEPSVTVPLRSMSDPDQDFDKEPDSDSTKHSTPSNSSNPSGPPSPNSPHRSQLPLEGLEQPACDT

off-target kinases [2] = target: off-target kinases (Homo sapiens, UniProt P24941)
off-target kinases [3] = target: T1, off-target kinases (Homo sapiens, UniProt O43318); details: MAP3K7/MAP3K7IP1 (TAK1-TAB1), LanthaScreen Binding
T1 sequence (O43318 1-606): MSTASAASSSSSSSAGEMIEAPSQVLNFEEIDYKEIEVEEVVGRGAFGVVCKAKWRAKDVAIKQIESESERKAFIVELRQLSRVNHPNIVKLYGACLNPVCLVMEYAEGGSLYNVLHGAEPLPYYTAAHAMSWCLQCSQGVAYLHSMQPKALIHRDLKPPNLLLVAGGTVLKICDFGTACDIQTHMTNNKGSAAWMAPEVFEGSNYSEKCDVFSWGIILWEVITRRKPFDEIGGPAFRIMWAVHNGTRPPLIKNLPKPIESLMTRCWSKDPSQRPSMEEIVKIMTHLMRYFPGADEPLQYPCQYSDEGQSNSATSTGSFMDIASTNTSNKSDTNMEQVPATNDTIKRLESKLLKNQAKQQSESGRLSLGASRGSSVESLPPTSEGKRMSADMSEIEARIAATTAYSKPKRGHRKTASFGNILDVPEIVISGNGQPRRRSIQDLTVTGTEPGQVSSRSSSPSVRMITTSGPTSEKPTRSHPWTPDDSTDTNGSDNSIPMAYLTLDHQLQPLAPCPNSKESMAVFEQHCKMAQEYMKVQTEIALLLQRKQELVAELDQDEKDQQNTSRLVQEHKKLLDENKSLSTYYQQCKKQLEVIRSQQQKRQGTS

off-target kinases [4] = target: off-target kinases (Homo sapiens, UniProt P00533, DEL746-750); details: EGFR (ErbB1) d746-750; mutant y; LanthaScreen Binding
off-target kinases (Homo sapiens, UniProt P00533, DEL746-750), sequence (P00533 with tags, fused parts or gaps DEL746-750): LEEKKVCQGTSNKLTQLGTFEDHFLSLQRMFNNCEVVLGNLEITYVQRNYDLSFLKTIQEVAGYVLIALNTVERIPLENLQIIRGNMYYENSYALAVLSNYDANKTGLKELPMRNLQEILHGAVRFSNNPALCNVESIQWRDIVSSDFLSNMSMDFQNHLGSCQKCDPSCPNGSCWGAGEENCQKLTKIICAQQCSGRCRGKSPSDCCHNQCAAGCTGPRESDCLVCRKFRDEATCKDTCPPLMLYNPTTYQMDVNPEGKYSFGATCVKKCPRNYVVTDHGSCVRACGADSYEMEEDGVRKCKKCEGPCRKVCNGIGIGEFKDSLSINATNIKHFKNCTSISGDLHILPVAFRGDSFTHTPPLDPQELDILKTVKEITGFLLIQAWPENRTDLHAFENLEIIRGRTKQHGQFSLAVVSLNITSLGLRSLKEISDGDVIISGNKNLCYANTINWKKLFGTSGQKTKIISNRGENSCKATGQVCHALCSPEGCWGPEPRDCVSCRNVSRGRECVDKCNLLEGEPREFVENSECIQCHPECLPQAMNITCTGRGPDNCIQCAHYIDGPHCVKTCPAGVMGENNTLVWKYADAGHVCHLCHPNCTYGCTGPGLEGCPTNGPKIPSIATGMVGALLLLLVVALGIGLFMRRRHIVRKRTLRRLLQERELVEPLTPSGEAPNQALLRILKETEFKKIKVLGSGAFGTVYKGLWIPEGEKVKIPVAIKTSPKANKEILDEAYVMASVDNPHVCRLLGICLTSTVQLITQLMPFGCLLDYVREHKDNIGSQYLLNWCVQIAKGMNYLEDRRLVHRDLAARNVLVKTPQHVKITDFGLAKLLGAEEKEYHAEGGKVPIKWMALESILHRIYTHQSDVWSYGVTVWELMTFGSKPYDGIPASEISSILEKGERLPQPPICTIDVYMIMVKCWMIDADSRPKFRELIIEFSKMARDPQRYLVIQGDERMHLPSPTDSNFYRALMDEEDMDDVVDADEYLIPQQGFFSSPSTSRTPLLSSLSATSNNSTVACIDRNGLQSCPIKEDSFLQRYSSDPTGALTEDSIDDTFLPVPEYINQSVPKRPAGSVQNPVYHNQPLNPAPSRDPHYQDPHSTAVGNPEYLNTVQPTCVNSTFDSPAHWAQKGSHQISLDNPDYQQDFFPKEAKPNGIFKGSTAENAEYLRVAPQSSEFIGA

off-target kinases [5] = target: off-target kinases (Homo sapiens, UniProt P54646)
off-target kinases (Homo sapiens, UniProt P54646), sequence (P54646 whole entry): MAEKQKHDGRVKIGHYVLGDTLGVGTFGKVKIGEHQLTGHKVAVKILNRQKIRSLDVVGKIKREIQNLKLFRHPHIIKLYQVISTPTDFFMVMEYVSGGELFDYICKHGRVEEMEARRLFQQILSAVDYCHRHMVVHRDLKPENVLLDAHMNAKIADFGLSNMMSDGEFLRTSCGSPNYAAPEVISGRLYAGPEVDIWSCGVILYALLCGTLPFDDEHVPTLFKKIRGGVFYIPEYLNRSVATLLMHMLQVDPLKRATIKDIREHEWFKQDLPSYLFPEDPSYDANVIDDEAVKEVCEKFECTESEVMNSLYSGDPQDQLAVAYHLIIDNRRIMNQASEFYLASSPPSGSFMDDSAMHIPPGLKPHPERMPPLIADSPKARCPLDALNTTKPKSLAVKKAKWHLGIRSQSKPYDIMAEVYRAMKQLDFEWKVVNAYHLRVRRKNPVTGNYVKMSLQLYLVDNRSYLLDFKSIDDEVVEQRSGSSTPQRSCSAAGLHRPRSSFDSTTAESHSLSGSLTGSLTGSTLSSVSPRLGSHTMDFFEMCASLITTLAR

Structure (SMILES): N#Cc1cc(-c2ncnc(Nc3ccc(N4CCN(C5COC5)CC4)cc3)n2)ccc1OC1CCOCC1 [Compound 1, 5-(4-((4-(4-(oxetan-3-yl)piperazin-1-yl)phenyl)amino)-1,3,5-triazin-2-yl)-2-((tetrahydro-2H-pyran-4-yl)oxy)benzonitrile]
- inhibition (off-target kinases [1]; read-out: % Inhibition 1): 6%
- inhibition (off-target kinases [1]; read-out: % Inhibition 2): 13%
- inhibition (off-target kinases [1]; read-out: % Inhibition Avg): 10%
- inhibition (off-target kinases [2]; CDK2/cyclin A1, LanthaScreen Binding, read-out: % Inhibition 1): 33%
- inhibition (off-target kinases [2]; CDK2/cyclin A1, LanthaScreen Binding, read-out: % Inhibition 2): 39%
- inhibition (off-target kinases [2]; CDK2/cyclin A1, LanthaScreen Binding, read-out: % Inhibition Avg): 36%
- inhibition (off-target kinases [2]; CDK2/cyclin A2, LanthaScreen Binding, read-out: % Inhibition 1): 24%
- inhibition (off-target kinases [2]; CDK2/cyclin A2, LanthaScreen Binding, read-out: % Inhibition 2): 29%
- inhibition (off-target kinases [2]; CDK2/cyclin A2, LanthaScreen Binding, read-out: % Inhibition Avg): 26%
- inhibition (off-target kinases [2]; CDK2/cyclin A, ZLYTE, ATP Km app, read-out: % Inhibition 1): 38%
- inhibition (off-target kinases [2]; CDK2/cyclin A, ZLYTE, ATP Km app, read-out: % Inhibition 2): 36%
- inhibition (off-target kinases [2]; CDK2/cyclin A, ZLYTE, ATP Km app, read-out: % Inhibition Avg): 37%
- inhibition (off-target kinases [2]; CDK2/cyclin E1, LanthaScreen Binding, read-out: % Inhibition 1): 15%
- inhibition (off-target kinases [2]; CDK2/cyclin E1, LanthaScreen Binding, read-out: % Inhibition 2): 17%
- inhibition (off-target kinases [2]; CDK2/cyclin E1, LanthaScreen Binding, read-out: % Inhibition Avg): 16%
- inhibition (off-target kinases [2]; CDK2/cyclin O, LanthaScreen, read-out: % Inhibition 1): 39%
- inhibition (off-target kinases [2]; CDK2/cyclin O, LanthaScreen, read-out: % Inhibition 2): 42%
- inhibition (off-target kinases [2]; CDK2/cyclin O, LanthaScreen, read-out: % Inhibition Avg): 41%
- inhibition (off-target kinases [3]; read-out: % Inhibition 2): 22%
- inhibition (off-target kinases [3]; read-out: % Inhibition Avg): 22%
- inhibition (off-target kinases [4]): 14%
- inhibition (off-target kinases [5]; AMPK (A2/B2/G1), LanthaScreen Binding, read-out: % Inhibition 1): 35%
- inhibition (off-target kinases [5]; AMPK (A2/B2/G1), LanthaScreen Binding, read-out: % Inhibition 2): 35%
- inhibition (off-target kinases [5]; AMPK (A2/B2/G1), LanthaScreen Binding, read-out: % Inhibition Avg): 35%
- inhibition (off-target kinases [5]; AMPK (A2/B2/G2), LanthaScreen Binding, read-out: % Inhibition 1): 44%
- inhibition (off-target kinases [5]; AMPK (A2/B2/G2), LanthaScreen Binding, read-out: % Inhibition 2): 45%
- inhibition (off-target kinases [5]; AMPK (A2/B2/G2), LanthaScreen Binding, read-out: % Inhibition Avg): 45%
- inhibition (off-target kinases [5]; AMPK A2/B1/G1, ATP Km app, ZLYTE, read-out: % Inhibition 1): 47%
- inhibition (off-target kinases [5]; AMPK A2/B1/G1, ATP Km app, ZLYTE, read-out: % Inhibition 2): 46%
- inhibition (off-target kinases [5]; AMPK A2/B1/G1, ATP Km app, ZLYTE, read-out: % Inhibition Avg): 46%
